These results are taken from US10792377B2, “Compounds and method for imaging cancer” (Vanderbilt University, priority 2017, dated 2020).

One series addresses T1, ovine COX-1 (Ovis aries, UniProt P05979).
T1 sequence (P05979 25-600): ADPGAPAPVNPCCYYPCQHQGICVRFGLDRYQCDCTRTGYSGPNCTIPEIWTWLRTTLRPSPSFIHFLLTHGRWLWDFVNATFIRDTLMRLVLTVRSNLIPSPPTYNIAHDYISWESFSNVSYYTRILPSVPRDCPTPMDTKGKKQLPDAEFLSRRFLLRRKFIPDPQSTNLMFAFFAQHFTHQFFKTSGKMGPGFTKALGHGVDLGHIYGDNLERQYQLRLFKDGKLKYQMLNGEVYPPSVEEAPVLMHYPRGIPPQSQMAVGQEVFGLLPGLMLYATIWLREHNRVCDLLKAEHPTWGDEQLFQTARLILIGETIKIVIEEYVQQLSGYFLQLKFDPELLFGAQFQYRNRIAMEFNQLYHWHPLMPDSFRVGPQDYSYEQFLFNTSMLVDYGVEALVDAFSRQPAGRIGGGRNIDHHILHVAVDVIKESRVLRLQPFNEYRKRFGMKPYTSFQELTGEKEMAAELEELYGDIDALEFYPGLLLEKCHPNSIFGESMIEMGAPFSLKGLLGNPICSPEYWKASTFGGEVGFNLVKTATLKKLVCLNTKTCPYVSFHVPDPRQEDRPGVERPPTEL
In words: In vitro purified COX-1 inhibition assay (TLC, 14C-arachidonic acid). It is filed as biochemical. The method, then: The in vitro cyclooxygenase (ovine COX-1 or human COX-2) inhibitory activities of these probes were tested by a previously described TLC assay (FIGS. 19-21). Briefly, reaction mixtures of 200 μL consisted of hematin-reconstituted protein in 100 mM Tris-HCl, pH 8.0, 500 μM phenol, and [1-^14C]arachidonic acid (50 μM, about 55-57 mCi/mmol, Perkin Elmer).
Inhibition Assay Using Purified COX-1 and COX-2. Inhibition of purified ovine COX-1 or mouse COX-2 by test compounds was assayed by a previously described method, which quantifies the conversion of [1-^14C]arachidonic acid to [1-^14C]prostaglandin products. Reaction mixtures of 200 ∝L consisted of hematin-reconstituted protein in 100 mM Tris-HCl, pH 8.0, 500 μM phenol, and [1-^14C]arachidonic acid (50 μM, ˜55-57 mCi/mmol, Perkin Elmer). […] Reactions were terminated by solvent extraction in diethyl ether:methanol:1 M citrate buffer, pH 4.0 (30:4:1). The phases were separated by centrifugation at 2000 g for 2 min, and the organic phase was spotted on a thin-layer chromatography plate (EMD Kieselgel 60, VWR). The plate was developed in ethyl acetate:methylene chloride:glacial AcOH (75:25:1) at 4° C. Radiolabeled products were quantified with a radioactivity scanner (Bioscan, Inc., Washington, D.C.).

A short description of series [1]: Fluorometry: extinction, quantum yield, fluorescence in DMSO/EtOH. It is filed as physicochemical. How it is done:
The TEMPO- and PROXYL-fluorocoxib probes are non-fluorescent (Φfl<0.3) in their non-trapped form, whereas fluorocoxib A or B are highly fluorescent (Φfl[…]) (FIG. 13). However, the absorbance and fluorescence of the TEMPO- and PROXYL-fluorocoxib probes increases in a time-dependent fashion when incubated in a DMSO/EtOH solution (FIGS. 14-15). Referring to FIG. 15, it is noted that at about 16 hours, fluorescence (ex 586 nm) read about 120,000 cps at 607 nm. Turning to FIG. 16, as compared to 5-ROX acid, which had extinction of 36/mM/cm at 580 nm and quantum yield of 0.94 at 604 nm, and fluorocoxib A, which had extinction of 45/mM/cm at 579 nm and quantum yield of 0.93 at 602 nm, fluorocoxib Q1 had extinction of less than 0.4/mM/cm at 586 nm and quantum yield of less than 0.36 at 607 nm. Without wishing to be bound by theory, it is believed that the time-dependent increase in fluorescence and measured fluorescence at 607 nm is the result of reduction/oxidation of fluorocoxib Q1 in the DMSO/EtOH solution (FIG. 16).
Fluorometry. Steady state fluorescence excitation and emission spectra were determined for each compound with a Spex 1681 Fluorolog spectrofluorometer, equipped with a 450 W xenon arc lamp. […]

The subject of another series is 1483 HNSCC cells. In words: Fluorescence microscopy of 1483 HNSCC cells. The settings on record: 1483 cells, 0.5 h preincubation. It is filed as cell-based, human. How it is done: To test the specific activation of probes in cancer cells, compound 1 was incubated at selected time points (0.5, 1.0, 2.0, 3.0 h). After washout, the cells were imaged under fluorescence microscope.
Fluorescence microscopy of 1483 HNSCC cells. Fluorescence imaging of human 1483 HNSCC cells by compound 1 was performed by a previously described method. Briefly, human 1483 HNSCC cells were grown to 60% confluence. The cells were incubated in 2.0 ml Hank's balanced salt solution (HBSS)/Tyrode's with 200 nM compound 1 for 30 min at 37° C. The cells were then washed briefly three times and incubated in HBSS/Tyrode's for 30 min at 37° C. Following the required washout period, the cells were imaged in 2.0 ml fresh HBSS/Tyrode's on a Zeiss Axiovert 25 Microscope with the propidium iodide filter (0.5-1.0 sec exposure, gain of 2).

Where two headings read alike, the source gives them in different places.

Turning to `COc1ccc2c(c1)c(CC(=O)NCCCCNC(=O)c1ccc(C3=c4cc5c6c(c4Oc4c3cc3c7c4CCCN7CCC3)CCC[N+]=6CCC5)c(C(=O)NC3CC(C)(C)N([O])C(C)(C)C3)c1)c(C)n2C(=O)c1ccc(Cl)cc1` [Compound 1], the concentration for half-maximal inhibition (IC50) against ovine COX-1 was > 25 µM.
On to `COc1ccc2c(c1)c(CC(=O)NCCCCNC(=O)c1ccc(C3=c4cc5c6c(c4Oc4c3cc3c7c4CCCN7CCC3)CCC[N+]=6CCC5)c(C(=O)[O-])c1)c(C)n2C(=O)c1ccc(Cl)cc1` [Fluorocoxib A, reference compound], for which the half-inhibitory concentration (IC50) was > 25 µM at ovine COX-1 (high throughput screening of fluorocoxib and chemocoxib libraries, read-out: purified COX-1 IC50); > 25 µM at ovine COX-1 (purified ovine COX-1 (22.5 nM), inhibitor 20 min, then 1-14C-AA (50 μM) 37° C. 30 s, duplicates, read-out: oCOX-1 IC50). This compound returned an extinction in series [1] (at 580 nm (5-ROX acid), 579 nm (fluorocoxib A), 586 nm (fluorocoxib Q1)) of 45 mM⁻¹ cm⁻¹. Further, in series [1] (at 604 nm (5-ROX acid), 602 nm (fluorocoxib A), 607 nm (fluorocoxib Q1)), the quantum yield was 0.93. In the series on 1483 HNSCC cells, the intracellular fluorescence entry is given as “bright fluorescence”.

Usually IC50 stands for the concentration needed to halve the response being measured.
